# According to patent US8569349B2, “Therapeutic compounds” (Allergan, Inc., priority 2008, dated 2013):
# Test system: lashes and adjacent hairs of the eyelids
# Test: Observation of lashes and adjacent hairs in glaucoma patients taking bimatoprost in only one eye
# Assay type: in vivo
# From the text: In the course of treating patients having glaucoma, treatment may only be appropriate in one eye. […] The lash appearance on the lids of the treated eyes would have appeared quite attractive if it represented a bilateral phenomenon. As a result of its asymmetric nature, the long lashes on one side could be construed as disturbing from a cosmetic standpoint. A systemic examination was preformed as a result of the asymmetric phenomenon. It soon became apparent that this altered appearance was not an isolated finding. […] Definite differences could be identified to varying degrees in the lashes and adjacent hairs of all patients who were taking the drug on a unilateral basis for longer than 6 months.
# The changes in the lashes were apparent on gross inspection in several patients once attention was focused on the issue. In those with light colored hair and lashes, the differences were only seen easily with the aid of the high magnification and lighting capabilities of the slit lamp biomicroscope. In the course of glaucoma follow-up examination, attention is generally immediately focused on the eye itself. As a result of the high power magnification needed only one eye is seen at a time and the eye is seen at a high enough power that the lashes are not in focus. […]
smiles,measurement,setting,value
CCNC(=O)CCC/C=C\C[C@@H]1[C@@H](/C=C/[C@@H](O)CCc2ccccc2)[C@H](O)C[C@@H]1O [bimatoprost],lashes in the treated eye compared with the non-treated eye,glaucoma patient treated in one eye,"longer, thicker, and fuller"
same,hair growth in treated versus control areas,"multiple parameters of hair appearance, many subjects",stimulated
